Where “and” joins values, the source holds several entries; their conditions need not be identical. Identical values can stand only once.
How the values were obtained:
[1] = test system: VCaP prostate cancer cells (TMPRSS2-ERG); assay: 72 h GI50 assay in VCaP; settings: for GI50: read-out: VCaP Prostate Cancer TMPRSS2-ERG GI50, 72 h growth inhibition, VCaP cells; for Ratio of median GI50 Prostate cells lacking TMPRSS2-ERG:VCaP: selectivity for VCaP over other prostate cancer cell lines
[2] = test system: ES-8 Ewing sarcoma cells (EWS-FLI1 Type 2); assay: 72 h GI50 assay in ES-8; settings: read-out: ES-8 EWS-FLI1 Type 2 GI50; 72 h growth inhibition
LNCaP cells = assay: 72 h GI50 assay in LNCaP; settings: read-out: LNCaP GI50; 72 h growth inhibition
[3] = test system: ES-7 Ewing sarcoma cells (EWS-FLI1 Type 4); assay: 72 h GI50 assay in ES-7; settings: read-out: ES-7 EWS-FLI1 Type 4 GI50; 72 h growth inhibition
PANC-1 cells = assay: 72 h GI50 assay in PANC-1; settings: read-out: PANC-1 GI50; 72 h growth inhibition
[4] = test system: TC-71 Ewing sarcoma cells (EWS-FLI1 Type 1); settings: 72 h growth inhibition
[5] = test system: RD-ES Ewing sarcoma cells (EWS-FLI1 Type 2); assay: 72 h GI50 assay in RD-ES; settings: read-out: RD-ES EWS-FLI1 Type 2 GI50; 72 h growth inhibition
A549 cells = assay: 72 h GI50 assay in A549; settings: read-out: A549 GI50; 72 h growth inhibition
HeLa cells = assay: 72 h GI50 assay in HeLa; settings: read-out: HeLa GI50; 72 h growth inhibition
[6] = test system: PC-3 (prostate cancer, no ETS translocation) cell line; assay: 72 h growth inhibition (GI50) assay in PC-3; settings: read-out: PC-3 Prostate cancer No ETS Translocation GI50; 72 h growth inhibition, PC-3 cells
[7] = test system: A-673 Ewing sarcoma cells (EWS-FLI1 Type 1); assay: 72 h GI50 assay in A-673; settings: read-out: A-673 EWS-FLI1 Type 1 GI50; 72 h growth inhibition
[8] = test system: prostate cell lines lacking TMPRSS2-ERG; assay: Median GI50 in prostate cell lines lacking TMPRSS2-ERG; settings: read-out: Median GI50 in prostate cell lines, lacking TMPRSS2-ERG; unit inferred
[9] = test system: 5838 Ewing sarcoma cells (EWS-ERG); assay: 72 h GI50 assay in 5838; settings: for GI50: read-out: 5838 Ewing Sarcoma EWS-ERG GI50, 72 h growth inhibition, 5838 cells; for Ratio of median GI50 Non-Ewing sarcoma cell lines (cf Table 3):5838: selectivity for 5838 cells
HCT 116 cells = assay: 72 h GI50 assay in HCT 116; settings: read-out: HCT 116 GI50; 72 h growth inhibition
[10] = test system: ES-2 Ewing sarcoma cells (EWS-FLI1 Type 3); assay: 72 h GI50 assay in ES-2; settings: read-out: ES-2 EWS-FLI1 Type 3 GI50; 72 h growth inhibition
DMS 114 cells = assay: 72 h GI50 assay in DMS 114; settings: read-out: DMS 114 GI50; 72 h growth inhibition
DU 145 cells = assay: 72 h GI50 assay in DU 145; settings: read-out: DU 145 GI50; 72 h growth inhibition
[11] = test system: TC-32 (Ewing sarcoma, EWS-FLI1 Type 1) cell line; settings: for TC-32 Ewing sarcoma EWS-FLI1 Type 1 GI50: 72 h growth inhibition, TC-32 cells; for GI50 ratio PC-3:TC-32: selectivity, GI50 in PC-3 over GI50 in TC-32
[12] = test system: Ewing sarcoma cell lines (TC-32, 5838, RD-ES, TC-71, A-673, ES-2, ES-7, ES-8); assay: Median GI50 in panel of Ewing sarcoma cell lines; settings: for Ratio of Median GI50 non-Ewing sarcoma:Ewing sarcoma (Selectivity Index): median GI50 non-Ewing panel over Ewing panel; for Selectivity Index ratio Analogues:MTM (1): selectivity index relative to MTM (1); for GI50: read-out: Median GI50 in Ewing sarcoma cell lines, median over 8 Ewing sarcoma cell lines, 72 h
CMV promoter = CMV promoter luciferase reporter assay in stably transfected TC-32 cells (non-specific control); type: cell-based; settings: 12 h; for CMV promoter driven luciferase signal: treated up to 10 μM
Text: Full-length NR0B1 promoter sequence was PCR amplified using Q5 high-fidelity DNA polymerase (New England Biolabs, Ipswich, Mass.) from genomic DNA of TC-32 cells and cloned into the pGLUC-Basic 2 vector (New England Biolabs, Ipswich, Mass.). XhoI and KpnI restriction sites were incorporated into the primers. After restriction enzyme (New England Biolabs, Ipswich, Mass.) digest and purification by gel electrophoresis, the target amplicon was ligated into the pGLUC-Basic 2 vector using T4 DNA ligase (Thermo Fisher Scientific, Waltham, Mass.). Chemically competent TOP10 E. coli cells were used to propagate vectors under ampicillin selection (100 μg/mL) (Thermo Fisher Scientific, Waltham, Mass.). The resulting vectors were extracted and purified using GeneJET plasmid prep kit (Thermo Fisher Scientific, Waltham, Mass.). The purified vector was transfected into TC-32 cells using lipofectamine 3000 (Thermo Fisher Scientific, Waltham, Mass.) with subsequent G418 selection (1 mg/mL) (VWR, Radnor, Pa.). Separately, TC-32 cells were transfected with pCMV-Red Firefly Vector (Thermo Fisher Scientific, Waltham, Mass.) with subsequent puromycin selection (0.1 mg/mL) (Sigma, St. Louis, Mo.) as a control.
Selected TC-32 cells, expressing either NR0B1 or CMV luciferase reporter vectors, were seeded in clear 96-well plates at a density of 10,000 cells/well. […] After a 12 h treatment, media was removed and cells were washed 3 times with DPBS (Thermo Fisher Scientific, Waltham, Mass.). Cells were directly lysed on a plate shaker for 30 min at room temperature using 100 μL of passive membrane lysis solution. Lysates (80 μL) were transferred to a white luminescence plate. Luciferase substrate, either coelenterazine or D-luciferin (50 μL of 1× solution), for NR0B1 or CMV vectors, respectively, was added in a Glomax 96 microplate luminometer (Promega, Madison, Wis.) and luminescence was immediately measured. Delay before and after injections were set to the default of 0.4 s and a 10 s integration time was used. All reagents used in this assay were from the dual luciferase reporter assay system (Promega, Madison, Wis.). Concurrently, an additional 96 well plate was seeded and treated under the exact same conditions to determine cell viability using resazurin assay. Luminescence results were normalized to cell viability.

| SMILES | GI50 [1] | Ratio of median GI50 Prostate cells lacking TMPRSS2-ERG:VCaP [1] | GI50 [2] | GI50 (LNCaP cells) | GI50 (PANC-1 cells) | TC-71 EWS-FLI1 Type 1 GI50 [4] | GI50 [5] | GI50 (A549 cells) | GI50 (HeLa cells) | GI50 [6] | GI50 [7] | GI50 [9] | Ratio of median GI50 Non-Ewing sarcoma cell lines (cf Table 3):5838 [9] | GI50 (HCT 116 cells) | GI50 [10] | GI50 (DMS 114 cells) | GI50 (DU 145 cells) | TC-32 Ewing sarcoma EWS-FLI1 Type 1 GI50 [11] | GI50 ratio PC-3:TC-32 [11] | Ratio of Median GI50 non-Ewing sarcoma:Ewing sarcoma (Selectivity Index) [12] | also measured |
| --- | --- | --- | --- | --- | --- | --- | --- | --- | --- | --- | --- | --- | --- | --- | --- | --- | --- | --- | --- | --- | --- |
| COC(=O)C(Cc1cn(C)c2ccccc12)NC(=O)C(OC)C1Cc2cc3cc(OC4CC(OC5CC(O)C(O)C(C)O5)C(O)C(C)O4)c(C)c(O)c3c(O)c2C(=O)C1OC1CC(OC2CC(OC3CC(C)(O)C(O)C(C)O3)C(O)C(C)O2)C(O)C(C)O1 (stereo not shown) [Analogue 45] | 0.307 µM | 5.1 | 1.33 µM | 1.86 µM | 1.73 µM | 0.696 µM | 0.539 µM | 2.37 µM | 1.76 µM | 1.56 µM | 1.01 µM | 0.121 µM | 13.3 | 0.826 µM | 1.5 µM | 1.05 µM | 0.761 µM | 0.139 µM | 11.2 | 2.4 | GI50 [3]: 0.672 µM; GI50 [8]: 1560 nM; fold increase in selectivity ([11]; PC-3:TC-32 selectivity, comparator not stated): ~4 fold; Selectivity Index ratio Analogues:MTM (1) [12]: 1.6 |
| C=CCOc1ccc2[nH]cc(CC(NC(=O)C(OC)C3Cc4cc5cc(OC6CC(OC7CC(O)C(O)C(C)O7)C(O)C(C)O6)c(C)c(O)c5c(O)c4C(=O)C3OC3CC(OC4CC(OC5CC(C)(O)C(O)C(C)O5)C(O)C(C)O4)C(O)C(C)O3)C(=O)OC)c2c1 (stereo not shown) [Analogue 51] | 0.485 µM | 0.9 | 0.09 µM | 2.23 µM | 0.532 µM | 0.636 µM | 0.843 µM | 1.54 µM | 1.71 µM | 0.454 µM | 0.272 µM | 0.024 µM | 22.2 | 0.38 µM | 5.37 µM | 2.84 µM | 0.298 µM | 0.053 µM | 8.6 | 1.1 | GI50 [3]: 1.66 µM; GI50 [8]: 454 nM; GI50 [12]: 0.485 µM; Selectivity Index ratio Analogues:MTM (1) [12]: 0.7 |
| COC(=O)C(Cc1c[nH]c2cc(F)ccc12)NC(=O)C(OC)C1Cc2cc3cc(OC4CC(OC5CC(O)C(O)C(C)O5)C(O)C(C)O4)c(C)c(O)c3c(O)c2C(=O)C1OC1CC(OC2CC(OC3CC(C)(O)C(O)C(C)O3)C(O)C(C)O2)C(O)C(C)O1 (stereo not shown) [Analogue 56] | 0.319 µM | 0.6 | 0.401 µM | 1.97 µM | 0.386 µM | 0.64 µM | 1 µM | 0.941 µM | 1.55 µM | 0.187 µM | 0.262 µM | 0.466 µM | 0.9 | 0.419 µM | 3.31 µM | 2.47 µM | 0.157 µM | 0.027 µM | 6.9 | 0.9 | GI50 [3]: 1.66 µM; GI50 [8]: 187 nM; GI50 [12]: 0.466 µM; Selectivity Index ratio Analogues:MTM (1) [12]: 0.6 |
| COC(=O)C(Cc1ccccc1)NC(=O)C(Cc1c[nH]c2ccccc12)NC(=O)C(OC)C1Cc2cc3cc(OC4CC(OC5CC(O)C(O)C(C)O5)C(O)C(C)O4)c(C)c(O)c3c(O)c2C(=O)C1OC1CC(OC2CC(OC3CC(C)(O)C(O)C(C)O3)C(O)C(C)O2)C(O)C(C)O1 (stereo not shown) [Analogue 59, MTMSA-Trp-Phe] | 0.021 µM | 3.6 | 0.074 µM | 0.697 µM | 0.152 µM | 0.019 µM | 0.054 µM | 1.94 µM | 0.397 µM | 0.075 µM | 0.238 µM | 0.039 µM | 3.9 | 0.082 µM | 0.125 µM | 0.018 µM | 0.067 µM | 0.037 µM | 2.0 | 2.4 and < 3 | CMV driven luciferase expression decreased down to (CMV promoter; concentrations between 1 and 10 μM): ~75%; CMV promoter driven luciferase signal (CMV promoter): decreased; CMV promoter driven luciferase signal (CMV promoter; listed as MTMSA-Trp-Phe (59)): reduces; GI50 [12]: 0.064 µM; Selectivity Index ratio Analogues:MTM (1) [12]: 1.6 |

From patent US11224609B2, “Mithramycin derivatives having increased selectivity and anti-cancer activity” (University of Kentucky Research Foundation, priority 2017, dated 2022)
